Experimental data: PubChem BioAssay (NCI)
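Each compound was tested at five concentrations against cells in 96-well plates for 48 hours. TGI denotes the concentration required for complete inhibition of growth.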

What was measured:
Experiment in all cases: DTP human tumour cell line panel, 48 h
BT-549 breast = system: BT-549 breast
MDA-MB-231 breast = system: MDA-MB-231 breast
SF-539 CNS = system: SF-539 CNS
SR leukemia = system: SR leukemia
MDA-MB-435 = system: MDA-MB-435
UACC-257 melanoma = system: UACC-257 melanoma
M14 melanoma = system: M14 melanoma
OVCAR-8 ovarian = system: OVCAR-8 ovarian
OVCAR-4 ovarian = system: OVCAR-4 ovarian
UO-31 renal = system: UO-31 renal
HCT-15 colon = system: HCT-15 colon

Compound | TGI (BT-549 breast) [µM] | TGI (MDA-MB-231 breast) [µM] | TGI (SF-539 CNS) [µM] | TGI (SR leukemia) [µM] | TGI (MDA-MB-435) [µM] | TGI (UACC-257 melanoma) [µM] | TGI (M14 melanoma) [µM] | TGI (OVCAR-8 ovarian) [µM] | TGI (OVCAR-4 ovarian) [µM] | TGI (UO-31 renal) [µM] | TGI (HCT-15 colon) [µM]
CCOC(=O)Cc1c(C(=O)OCC)[n+](=O)c2cc(Cl)c(Cl)cc2n1[O-] | 6.53 | 7.02 | 5.44 | 2.11 | 9.03 | 5.51 | 5.98 | 6.2 | 3.51 | 3.36 | 
Cc1ccc(C2=CC(=O)/C(=C\C(=O)c3ccc(Br)cc3)O2)c(C)c1 | 16.2 | 26.8 | 57.1 | 12.6 | 38.7 | > 48.6 | 35.3 | 19 | 23.9 | 27.7 | 36.9
Cc1ccc(C(=O)N/N=C(\N=Nc2ccc([N+](=O)[O-])cc2)c2ccc(N(CCC#N)CCC#N)cc2C)cc1 | > 100 | > 100 | > 100 | > 100 | > 100 | > 100 | > 100 | > 100 | > 100 | > 100 | > 100
O/N=C\c1c2c(cc3c1CCC3)CCC2 | > 100 | > 100 | > 100 | > 100 | > 100 | > 100 | > 100 | > 100 | > 100 | > 100 | > 100
O=C(NNC(=O)c1ccco1)c1ccco1 | > 100 | > 100 | > 100 | > 100 | > 100 | > 100 | > 100 | > 100 | > 100 | > 100 | > 100
ClC1=NSSC1(Cl)Cl | > 100 | 71.2 | > 100 | 60.2 | > 100 | > 100 | 40.1 | 87.2 | > 100 | 78 | 60
Nc1cccc(-c2cc(=O)c3cc4c(cc3[nH]2)OCO4)c1 | > 100 | 8.64 | 2.79 | > 100 | 0.415 | > 100 | > 79.6 | > 22.6 | > 100 | > 75.9 | 21.8
C[C@]12CC[C@H]3[C@@H](CC=C4C[C@@H](O)CC[C@@]43C)[C@@H]1C/C(=C\c1cccnc1)[C@@H]2O | 48.9 | 57.8 | 81.6 | > 100 | > 100 | > 100 | > 100 | 36.3 | 58.9 | > 100 | > 100
CN(C(=O)Cc1ccccc1)n1cn[n+](CC(=O)OC(C)(C)C)c1 | > 10 | > 10 | > 10 | > 10 | > 10 | > 10 | > 10 | > 10 | > 10 | > 10 | > 10
CSc1c(C(C)=O)c(O)n(-c2ccc(C)cc2)c(=O)c1C#N | > 100 | > 100 | > 100 | > 100 | > 100 | > 100 | > 100 | > 100 | > 100 | > 100 | > 100
O=C1c2cc3c(cc2NC(c2ccccc2F)C1O)OCO3 (configuration not stated) | > 100 | > 76.2 | 35.2 | > 37.9 | 13.6 | > 100 | > 100 | 71.9 | > 84.9 | > 75.8 | > 100
CO[C@@]12C[C@H](CNC(=O)c3ccc[nH]3)O[C@@H]1NC(=O)N2 | > 100 | > 100 | > 100 | > 100 | > 100 | > 100 | > 100 | > 100 | > 100 | > 100 | > 100
COCN1C(=O)[C@@H]2CCCN2C(=O)c2ccc(N)cc21 | > 100 | > 100 | > 100 | > 100 | > 100 | > 100 | > 100 | > 100 | > 100 | > 100 | > 100
CC(C)(C)OC(=O)Cn1ncn(NC(=O)Cc2ccccc2)c1=S | > 10 | > 10 | > 10 | > 10 | > 10 | > 10 | > 10 | > 10 | > 10 | > 10 | > 10
CC(=O)OC1CCn2c1nc1cc([N+](=O)[O-])c(C)cc12 (configuration not stated) | > 100 | > 100 | > 100 | > 100 | > 100 | > 100 | > 100 | > 100 | > 100 | > 100 | > 100
CC(=O)OCC1OC(OCCCOP(=O)(OCCC#N)OCC2OC(n3cnc4c(N)ncnc43)C(OC(=O)c3ccccc3)C2OC(=O)c2ccccc2)C(OC(C)=O)C(OC(C)=O)C1OC(C)=O (configuration not stated) | > 100 | > 100 | > 100 | > 100 | > 100 | > 100 | > 100 | > 100 | > 100 | > 100 | > 100
COC(=O)[C@@H]1c2c(oc3cc(CO)cc(O)c3c2=O)C=C[C@H]1O | 12.4 | 27.5 | 9.41 | > 100 | 15.5 | 21.5 | 19.8 | 21.7 | 12 | 14.2 | 9.48
Nc1nc(N)c2nc(CN(C=O)c3ccc(C(=O)O)cc3)cnc2n1 | > 94.7 | > 100 | > 100 | > 100 | > 100 | > 100 | > 100 | > 100 | > 100 | > 100 | > 100
